Test results reported in ChEMBL document CHEMBL1201862, “PubChem BioAssay data set” (2004).
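Growth conditions: 96-well plates. Treatment: test compound, 48 hours, 5 concentrations. Analysis: linear interpolation between bracketing concentrations; unreached endpoints set to highest concentration. The concentration for 50% growth inhibition is given as GI50.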 Active and inactive are the calls of the source. No stated cut-off is given here; in the data, active = GI50 up to about 1.1 µM and inactive = higher. Where a SMILES comes first, the peptide text is derived from it. [ ]: non-standard residue; d: D form. The star is where a group is joined. NMeF = CN[C@@H](Cc1ccccc1)C(=O)O; NMeV = CN[C@H](C(=O)O)C(C)C; Boc = CC(C)(C)OC(=O)*; OBn = c1ccc(CO*)cc1

Experiments:
Assay in all cases: inhibition of tumour cell growth, NCI panel, 48 h
BT-549 = test system: BT-549
COLO 205 = test system: COLO 205
HCT-15 = test system: HCT-15
HL-60 = test system: HL-60
HOP-18 = test system: HOP-18
HOP-62 = test system: HOP-62
HOP-92 = test system: HOP-92
HT-29 = test system: HT-29
K562 = test system: K562
LOX IMVI = test system: LOX IMVI
MOLT-4 = test system: MOLT-4
Malme-3M = test system: Malme-3M
NCI-H23 = test system: NCI-H23
OVCAR-4 = test system: OVCAR-4
OVCAR-8 = test system: OVCAR-8
RPMI-8226 = test system: RPMI-8226
SNB-75 = test system: SNB-75
T47D = test system: T47D
U-251 = test system: U-251
UO-31 = test system: UO-31

SMILES	GI50 (BT-549)	GI50 (COLO 205)	GI50 (HCT-15)	GI50 (HL-60)	GI50 (HOP-18)	GI50 (HOP-62)	GI50 (HOP-92)	GI50 (HT-29)	GI50 (K562)	GI50 (LOX IMVI)	GI50 (MOLT-4)	GI50 (Malme-3M)	GI50 (NCI-H23)	GI50 (OVCAR-4)	GI50 (OVCAR-8)	GI50 (RPMI-8226)	GI50 (SNB-75)	GI50 (T47D)	GI50 (U-251)	GI50 (UO-31)
O=C(CCN1CCCCC1)Nc1ccc2c(c1)C(=O)c1ccc(NC(=O)CCN3CCCCC3)cc1C2=O	14.6 µM (inactive)	10.9 µM (inactive)	2.59 µM	2.79 µM (inactive)	17 µM (inactive)	2.12 µM (inactive)	15.4 µM (inactive)	3.24 µM (inactive)	2.25 µM (inactive)	1.75 µM (inactive)	3.83 µM (inactive)	10.5 µM (inactive)	6.05 µM (inactive)	3.5 µM (inactive)	5.57 µM (inactive)	4.43 µM (inactive)	3.82 µM (inactive)	16.5 µM (inactive)	4.98 µM (inactive)	12.4 µM (inactive)
CN(C(=O)c1cccs1)C(=S)N1CCN(c2ccccn2)CC1	–	> 100 µM (inactive)	> 100 µM	> 100 µM (inactive)	> 100 µM (inactive)	> 100 µM (inactive)	> 100 µM (inactive)	> 100 µM (inactive)	> 100 µM (inactive)	> 100 µM (inactive)	> 100 µM (inactive)	> 100 µM (inactive)	> 100 µM (inactive)	> 100 µM (inactive)	> 100 µM (inactive)	> 100 µM (inactive)	> 100 µM (inactive)	–	> 100 µM (inactive)	> 100 µM (inactive)
CN(CCS(=O)(=O)N1C(=O)C2CCCN2C(=O)[C@@H]1Cc1ccccc1)C(=O)OCc1ccccc1 (stereo not given in full)	–	58.5 µM (inactive)	58.6 µM	10.7 µM (inactive)	> 100 µM (inactive)	> 100 µM (inactive)	26.2 µM (inactive)	47.4 µM (inactive)	33.4 µM (inactive)	58.3 µM (inactive)	16.5 µM (inactive)	65 µM (inactive)	53.2 µM (inactive)	68.4 µM (inactive)	70.3 µM (inactive)	15.1 µM (inactive)	33.4 µM (inactive)	–	56.2 µM (inactive)	31.8 µM (inactive)
CN(C)CCN(C)CCC(=O)/C=C/c1ccccc1	–	18.7 µM (inactive)	21.8 µM	16.4 µM (inactive)	> 100 µM (inactive)	> 100 µM (inactive)	25.5 µM (inactive)	20.8 µM (inactive)	12.7 µM (inactive)	12.6 µM (inactive)	7.26 µM (inactive)	18.4 µM (inactive)	27.1 µM (inactive)	38.2 µM (inactive)	21.2 µM (inactive)	2.16 µM (inactive)	> 41.5 µM (inactive)	–	57.7 µM (inactive)	> 64.7 µM (inactive)
N#CCCN(C1=NN(C(=O)CC(=O)Nc2ccc(Cl)cc2)C(c2ccccc2)C1)c1ccc(Cl)cc1 (stereo not given)	–	> 100 µM (inactive)	> 100 µM	> 100 µM (inactive)	> 100 µM (inactive)	> 100 µM (inactive)	> 100 µM (inactive)	> 100 µM (inactive)	> 100 µM (inactive)	> 100 µM (inactive)	> 100 µM (inactive)	> 100 µM (inactive)	> 100 µM (inactive)	> 100 µM (inactive)	> 100 µM (inactive)	> 100 µM (inactive)	> 100 µM (inactive)	–	> 100 µM (inactive)	> 100 µM (inactive)
Cc1c(C(=O)CC(=O)C(=O)Nc2cccc(C(F)(F)F)c2)[n+]([O-])c2ccccc2[n+]1[O-]	–	3.33 µM (inactive)	3.31 µM	3.08 µM (inactive)	11.2 µM (inactive)	23.6 µM (inactive)	14.3 µM (inactive)	3.79 µM (inactive)	3.8 µM (inactive)	2.86 µM (inactive)	2.71 µM (inactive)	4.22 µM (inactive)	7.36 µM (inactive)	2.42 µM (inactive)	2.45 µM (inactive)	3.07 µM (inactive)	3.04 µM (inactive)	–	4.03 µM (inactive)	16.3 µM (inactive)
CN(C)c1ccc(/C=C/c2ccc(/C=C/c3ccc(N(C)C)cc3)cc2)cc1	–	> 100 µM (inactive)	> 100 µM	> 100 µM (inactive)	> 100 µM (inactive)	–	92.5 µM (inactive)	> 100 µM (inactive)	75.5 µM (inactive)	> 100 µM (inactive)	> 100 µM (inactive)	13 µM (inactive)	94.6 µM (inactive)	> 100 µM (inactive)	> 100 µM (inactive)	63.8 µM (inactive)	> 100 µM (inactive)	–	> 100 µM (inactive)	41.2 µM (inactive)
CC(C)[C@@H](C(=O)N1CCC[C@H]1C(=O)OCc1ccccc1)N(C)C(=O)[C@H](C(C)C)N(C)C(=O)[C@H](Cc1ccccc1)N(C)C(=O)[C@H](NC(=O)OC(C)(C)C)C(C)C (Boc-[dV][NMeF][NMeV][NMeV]P-OBn)	> 50 µM (inactive)	> 50 µM (inactive)	17.3 µM	> 50 µM (inactive)	> 100 µM (inactive)	> 50 µM (inactive)	> 50 µM (inactive)	> 50 µM (inactive)	> 50 µM (inactive)	> 50 µM (inactive)	> 50 µM (inactive)	–	> 50 µM (inactive)	> 50 µM (inactive)	–	> 50 µM (inactive)	> 50 µM (inactive)	> 50 µM (inactive)	> 50 µM (inactive)	> 50 µM (inactive)
